Legend:
Assay in all cases: Small molecule-enzyme mutant complementation study
Type in all cases: biochemical
[1] = molecular target: T1, hIDE A198Q (Homo sapiens, UniProt P14735, A198Q); details: A198Q vs hIDE WT, batch 1
T1 construct: The reported N-His6-tagged human IDE42-1019 construct; made in house; host or cells: E. coli Rosetta 2 (DE3) pLysS
Source text: (§1) Protease assays with fluorogenic peptide substrates. […] All assay data points were obtained in duplicate.
(§2) Site-directed mutagenesis, expression, and purification of human IDE. The reported N-His6-tagged human IDE42-1019 construct was introduced in the expression plasmid pTrcHis-A (Invitrogen) using primers for uracil-specific excision reactions (USER) by Taq (NEB) and Pfu polymerases (PfuTurbo CX®, Agilent). The IDE gene was amplified with the primers 5′-[…]-dU-[…] and 5′-[…] G-dU-[…] (underlined sequences represent overhangs, and italics highlight the PCR priming sequence). Similarly, the pTrcHis-A vector was amplified for USER cloning with the primers 5′-[…] TGA-dU-[…] CCC and 5′-[…]-dU-[…]. Mutant IDE constructs were generated by amplifying the full vector construct with USER cloning primers introducing a mutant overhang (Table 5).
(§3) All PCR products were purified on microcentrifuge membrane columns (MinElute®, Qiagen) and quantified by UV absorbance (NanoDrop). Each fragment (0.2 pmol) was combined in a 10 μL reaction mixture containing 20 units DpnI (NEB), 0.75 units of USER mix (Endonuclease VIII and Uracil-DNA Glycosylase, NEB), 20 mM Tris-acetate, 50 mM potassium acetate, 10 mM magnesium acetate, 1 mM dithiothreitol at pH 7.9 (1× NEBuffer 4). The reactions were incubated at 37° C. for 45 min, followed by heating to 80° C. and slow cooling to 30° C. (0.2° C./s). The hybridized constructs were directly used for heat-shock transformation of chemically competent NEB turbo E. coli cells according to the manufacturer's instructions. Transformants were selected on carbenicillin LB agar, and isolated colonies were cultured overnight in 2 mL LB.
(§4) The plasmid was extracted using a microcentrifuge membrane column kit (Miniprep®, Qiagen), and the sequence of genes and vector junctions were confirmed by Sanger sequencing (Table 6). The plasmid constructs were transformed by heat-shock into chemically-competent expression strain Rosetta 2 (DE3) pLysS E. coli cells (EMD Millipore), and selected on carbenicillin/chloramphenicol LB agar. Cells transformed with IDE pTrcHis A constructs were cultured overnight at 37° C. in 2 XYT media (31 g in 1 L) containing 100 μg/mL ampicillin and 34 μg/mL chloramphenicol. Expression of His6-tagged IDE proteins was induced when the culture measured OD600 ˜0.6 by addition of isopropyl-β-D-1-thiogalactopyranoside (IPTG) to 1 mM final concentration, incubated overnight at 37° C., followed by centrifugation at 10,000 g for 30 min at 4° C.
(§5) Recombinant His6-tagged proteins were purified by Ni(II)-affinity chromatography (IMAC sepharose beads, GE Healthcare®) according to the manufacturer's instructions. The cell pellets were resuspended in pH 8.0 buffer containing 50 mM phosphate, 300 mM NaCl, 10 mM imidazole, 1% Triton X-100 and 1 mM tris(2-carboxyethyl)phosphine hydrochloride (TCEP), and were lysed by probe sonication for 4 min at 4° C., followed by clearing of cell debris by centrifugation at 10,000 g for 25 min at 4° C. The supernatant was incubated with Ni(II)-doped IMAC resin (2 mL) for 3 h at 4° C. The resin was washed twice with the cell resuspension/lysis buffer, and three times with pH 8.0 buffer containing 50 mM phosphate, 300 mM NaCl,50 mM imidazole and 1 mM TCEP. Elution was performed in 2 mL aliquots by raising the imidazole concentration to 250 mM and subsequently to 500 mM in the previous buffer. The fractions were combined and the buffer was exchanged to the recommended IDE buffer (R&D) using spin columns with 100 KDa molecular weight cut off membranes (Millipore). Protein yields were typically ˜10 μg/L, and >90% purity based on gel electrophoresis analysis (Coomassie stained).

[2] = molecular target: T2, hIDE A198T (Homo sapiens, UniProt P14735, A198T); details: A198T vs hIDE WT, batch 2
T2 construct: The reported N-His6-tagged human IDE42-1019 construct; made in house; host or cells: E. coli Rosetta 2 (DE3) pLysS
T2 sequence (P14735 42-1019 A198T): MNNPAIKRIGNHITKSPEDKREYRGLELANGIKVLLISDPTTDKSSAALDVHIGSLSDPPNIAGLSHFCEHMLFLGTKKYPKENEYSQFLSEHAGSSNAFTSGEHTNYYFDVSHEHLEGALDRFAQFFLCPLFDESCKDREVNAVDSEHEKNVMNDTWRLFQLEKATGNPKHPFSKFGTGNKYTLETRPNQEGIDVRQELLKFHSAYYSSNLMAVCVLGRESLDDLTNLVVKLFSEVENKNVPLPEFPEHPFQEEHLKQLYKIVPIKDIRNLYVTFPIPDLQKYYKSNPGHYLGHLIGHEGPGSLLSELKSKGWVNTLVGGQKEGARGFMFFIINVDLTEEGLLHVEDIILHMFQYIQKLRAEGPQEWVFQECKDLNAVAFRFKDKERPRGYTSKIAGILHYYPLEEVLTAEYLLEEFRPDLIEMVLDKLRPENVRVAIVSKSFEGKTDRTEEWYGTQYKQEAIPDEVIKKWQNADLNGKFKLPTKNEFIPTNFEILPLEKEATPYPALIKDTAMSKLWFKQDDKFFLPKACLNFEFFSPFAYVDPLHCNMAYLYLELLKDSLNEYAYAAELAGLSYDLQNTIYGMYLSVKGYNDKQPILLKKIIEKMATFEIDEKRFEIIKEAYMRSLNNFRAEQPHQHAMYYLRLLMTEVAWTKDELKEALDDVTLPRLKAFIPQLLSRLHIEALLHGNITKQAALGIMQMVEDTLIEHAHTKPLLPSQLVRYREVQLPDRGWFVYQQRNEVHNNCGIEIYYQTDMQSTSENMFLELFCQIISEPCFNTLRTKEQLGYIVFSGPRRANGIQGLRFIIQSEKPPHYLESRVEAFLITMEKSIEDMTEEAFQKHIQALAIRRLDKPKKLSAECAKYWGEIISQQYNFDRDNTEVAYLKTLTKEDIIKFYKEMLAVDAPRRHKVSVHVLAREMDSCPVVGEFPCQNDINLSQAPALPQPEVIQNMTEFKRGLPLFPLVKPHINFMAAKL
Source text: as §1, §2, §3, §4, §5

[3] = molecular target: T3, hIDE A198Y (Homo sapiens, UniProt P14735, A198Y); details: A198Y vs hIDE WT, batch 2
T3 construct: The reported N-His6-tagged human IDE42-1019 construct; made in house; host or cells: E. coli Rosetta 2 (DE3) pLysS
T3 sequence (P14735 42-1019 A198Y): as the sequence (P14735 42-1019 A198T) above, with T157Y counted along it
Source text: as §1, §2, §3, §4, §5

[4] = molecular target: T4, hIDE F202L (Homo sapiens, UniProt P14735, F202L); details: F202L vs hIDE WT, batch 1
T4 construct: The reported N-His6-tagged human IDE42-1019 construct; made in house; host or cells: E. coli Rosetta 2 (DE3) pLysS
T4 sequence (P14735 42-1019 F202L): as the sequence (P14735 42-1019 A198T) above, with T157A, F161L counted along it
Source text: as §1, §2, §3, §4, §5

[5] = molecular target: T5, hIDE F202R (Homo sapiens, UniProt P14735, F202R); details: F202R vs hIDE WT, batch 2
T5 construct: The reported N-His6-tagged human IDE42-1019 construct; made in house; host or cells: E. coli Rosetta 2 (DE3) pLysS
T5 sequence (P14735 42-1019 F202R): as the sequence (P14735 42-1019 A198T) above, with T157A, F161R counted along it
Source text: as §1, §2, §3, §4, §5

[6] = molecular target: T6, hIDE G361Q (Homo sapiens, UniProt P14735, G361Q); details: G361Q vs hIDE WT, batch 3
T6 construct: The reported N-His6-tagged human IDE42-1019 construct was introduced in the expression plasmid pTrcHis-A; made in house; host or cells: E. coli Rosetta 2 (DE3) pLysS
T6 sequence (P14735 42-1019 G361Q): as the sequence (P14735 42-1019 A198T) above, with T157A, G320Q counted along it
Source text: as §1, §2, §3, §4, §5

[7] = molecular target: T7, hIDE I310R (Homo sapiens, UniProt P14735, I310R); details: I310R vs hIDE WT, batch 2
T7 construct: The reported N-His6-tagged human IDE42-1019 construct; made in house; host or cells: E. coli Rosetta 2 (DE3) pLysS
T7 sequence (P14735 42-1019 I310R): as the sequence (P14735 42-1019 A198T) above, with T157A, I269R counted along it
Source text: as §1, §2, §3, §4, §5

[8] = molecular target: T8, hIDE I374M (Homo sapiens, UniProt P14735, I374M); details: I374M vs hIDE WT, batch 1
T8 construct: The reported N-His6-tagged human IDE42-1019 construct was introduced in the expression plasmid pTrcHis-A; made in house; host or cells: E. coli Rosetta 2 (DE3) pLysS
T8 sequence (P14735 42-1019 I374M): as the sequence (P14735 42-1019 A198T) above, with T157A, I333M counted along it
Source text: as §1, §2, §3, §4, §5

[9] = molecular target: T9, hIDE K364A (Homo sapiens, UniProt P14735, K364A); details: K364A vs hIDE WT, batch 2
T9 construct: The reported N-His6-tagged human IDE42-1019 construct was introduced in the expression plasmid pTrcHis-A; made in house; host or cells: E. coli Rosetta 2 (DE3) pLysS
T9 sequence (P14735 42-1019 K364A): as the sequence (P14735 42-1019 A198T) above, with T157A, K323A counted along it
Source text: as §1, §2, §3, §4, §5

[10] = molecular target: T10, hIDE V360Q (Homo sapiens, UniProt P14735, V360Q); details: V360Q vs hIDE WT, batch 1
T10 construct: The reported N-His6-tagged human IDE42-1019 construct was introduced in the expression plasmid pTrcHis-A; made in house; host or cells: E. coli Rosetta 2 (DE3) pLysS
T10 sequence (P14735 42-1019 V360Q): as the sequence (P14735 42-1019 A198T) above, with T157A, V319Q counted along it
Source text: as §1, §2, §3, §4, §5

[11] = molecular target: T11, hIDE V360R (Homo sapiens, UniProt P14735, V360R); details: V360R vs hIDE WT, batch 3
T11 construct: The reported N-His6-tagged human IDE42-1019 construct was introduced in the expression plasmid pTrcHis-A; made in house; host or cells: E. coli Rosetta 2 (DE3) pLysS
T11 sequence (P14735 42-1019 V360R): as the sequence (P14735 42-1019 A198T) above, with T157A, V319R counted along it
Source text: as §1, §2, §3, §4, §5

[12] = molecular target: T12, hIDE W199F (Homo sapiens, UniProt P14735, W199F); details: W199F vs hIDE WT, batch 2
T12 construct: The reported N-His6-tagged human IDE42-1019 construct; made in house; host or cells: E. coli Rosetta 2 (DE3) pLysS
T12 sequence (P14735 42-1019 W199F): as the sequence (P14735 42-1019 A198T) above, with T157A, W158F counted along it
Source text: as §1, §2, §3, §4, §5

[13] = molecular target: T13, hIDE W199Y (Homo sapiens, UniProt P14735, W199Y); details: W199Y vs hIDE WT, batch 2
T13 construct: The reported N-His6-tagged human IDE42-1019 construct; made in house; host or cells: E. coli Rosetta 2 (DE3) pLysS
T13 sequence (P14735 42-1019 W199Y): as the sequence (P14735 42-1019 A198T) above, with T157A, W158Y counted along it
Source text: as §1, §2, §3, §4, §5

T1 sequence (P14735 42-1019 A198Q): as the sequence (P14735 42-1019 A198T) above, with T157Q counted along it

IC50 shift [1]: 2.3 fold
IC50 shift [2]: 16 fold
IC50 shift [3]: 0.5 fold
IC50 shift [4]: 1.7 fold
IC50 shift [5]: 3.7 fold
IC50 shift [6]: 0.8 fold
IC50 shift [7]: 0.8 fold
IC50 shift [8]: 0.7 fold
IC50 shift [9]: 26 fold
IC50 shift [10]: 1.5 fold
IC50 shift [11]: 1.4 fold
IC50 shift [12]: 3.0 fold
IC50 shift [13]: 1.8 fold
SMILES: NC(=O)CCC1NC(=O)C=CC(=O)NC(C(N)=O)CCCCNC(=O)C(Cc2ccc(C(=O)c3ccccc3)cc2)NC(=O)C(CC2CCCCC2)NC1=O (stereo not shown) [Compound 6b]

From patent publication US20160282364A1, “ASSAY FOR INSULIN-DEGRADING ENZYME (IDE) INHIBITORS” (PRESIDENT AND FELLOWS OF HARVARD COLLEGE, priority 2013, published 2016)
